The text below walks through data of patent US10125134B2 (Mirati Therapeutics, Inc., priority 2016, dated 2018).

Structures are written as SMILES. pIC50: −log10 of the molar value. Like-named read-outs stand apart in the source and are kept apart here.

For orientation: pIC50 means the negative decadic logarithm of the IC50, by convention in mol/L.

Assay [1] has as its system NCI-H358 cells (express KRas G12C), Phospho-ERK. As to the kind of experiment: Cellular inhibition of KRas G12C: Phospho-ERK in NCI-H358 cells. The assay is classed as cell-based. To be noted: Homo sapiens, pERK(Thr202/Tyr204) normalized with GAPDH, NCI-H358 cells, 3 hours, read-out: IC50. The gist of the method:
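IC50 derived by 4-parameter fit of GAPDH-normalized pERK(Thr202/Tyr204) signal, as percent of DMSO control. Signal came from in-cell immunodetection with infrared secondaries after 3 h compound exposure of KRas G12C NCI-H358 cells at 0.5% DMSO.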

Another assay deals with KRas G12C (Homo sapiens, UniProt P01116, C118S/C51S/C80L/G12C). As to the kind of experiment: KRas G12C Modification Assay (LCMS detection of covalent adduct). The assay is classed as binding. To be noted: normalized percent of control; tested at 5 μM concentration for 3 hours. The essentials:
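Cys-light KRas G12C mutant protein incubated with compound in K-Ras assay buffer, reactions quenched at set time points with 25 mM acetic acid and analysed by intact-protein LC/MS on a C-3 column. Deconvoluted mass heights expressed as percent of control (POC) relative to compound-free protein.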

For `C=CC(=O)N1CCN(c2nc(OCCN3CCC(OC)C3)nc3c2CCN(c2cc(O)cc4ccccc24)C3)CC1` (centres unmarked) [Example 136, 1-[4-[7-(3-hydroxy-1-naphthyl)-2-[2-(3-methoxypyrrolidin-1-yl)ethoxy]-6,8-dihydro-5H-pyrido[3,4-d]pyrimidin-4-yl]piperazin-1-yl]prop-2-en-1-one], in assay [1] (NCI-H358, 3 h), the negative logarithm of the IC50 (pIC50) was less than 6.00. Also, the POC result at KRas G12C is reported as “C (“C”>50% POC)”.

As to `C=CC(=O)N1CCN(c2nc(OCCCN3CCC(OC)C3)nc3c2CCN(c2cc(O)cc4ccccc24)C3)CC1` (centres unmarked) [Example 137, 1-[4-[7-(3-hydroxy-1-naphthyl)-2-[3-(3-methoxypyrrolidin-1-yl)propoxy]-6,8-dihydro-5H-pyrido[3,4-d]pyrimidin-4-yl]piperazin-1-yl]prop-2-en-1-one], the pIC50 in assay [1] (NCI-H358, 3 h) was less than 6.00. The POC entry at KRas G12C is “C (“C”>50% POC)”.

Regarding `C=CC(=O)N1CCN(c2nc(OCCN3CC(F)(F)C3)nc3c2CCN(c2cc(O)cc4ccccc24)C3)CC1` [Example 138, 1-[4-[2-[2-(3,3-difluoroazetidin-1-yl)ethoxy]-7-(3-hydroxy-1-naphthyl)-6,8-dihydro-5H-pyrido[3,4-d]pyrimidin-4-yl]piperazin-1-yl]prop-2-en-1-one], the negative logarithm of the IC50 (pIC50) in assay [1] (NCI-H358, 3 h) is less than 6.00. In addition, the POC result on KRas G12C is reported as “C (“C”>50% POC)”.

Take `C=CC(=O)N1CCN(c2nc(OCCN3CCC(F)(F)C3)nc3c2CCN(c2cc(O)cc4ccccc24)C3)CC1` [Example 139, 1-[4-[2-[2-(3,3-difluoropyrrolidin-1-yl)ethoxy]-7-(3-hydroxy-1-naphthyl)-6,8-dihydro-5H-pyrido[3,4-d]pyrimidin-4-yl]piperazin-1-yl]prop-2-en-1-one]: the negative-log IC50 (pIC50) in assay [1] (NCI-H358, 3 h) was less than 6.00. Also, the POC result on KRas G12C is on record as “C (“C”>50% POC)”.

As for `C=CC(=O)N1CCN(c2nc(OCC3CCN(CC(=O)N(C)C)C3)nc3c2CCN(c2cc(O)cc4ccccc24)C3)CC1` (centres unmarked) [Example 140, 2-[3-[[7-(3-hydroxy-1-naphthyl)-4-(4-prop-2-enoylpiperazin-1-yl)-6,8-dihydro-5H-pyrido[3,4-d]pyrimidin-2-yl]oxymethyl]pyrrolidin-1-yl]-N,N-dimethyl-acetamide], the pIC50 in assay [1] (NCI-H358, 3 h) was less than 6.00. At KRas G12C, the POC entry is listed as “C (“C”>50% POC)”.

On to `C=CC(=O)N1CCN(c2nc(OCC3CCN(CCO)C3)nc3c2CCN(c2cc(O)cc4ccccc24)C3)CC1` (centres unmarked) [Example 141, 1-[4-[2-[[1-(2-hydroxyethyl)pyrrolidin-3-yl]methoxy]-7-(3-hydroxy-1-naphthyl)-6,8-dihydro-5H-pyrido[3,4-d]pyrimidin-4-yl]piperazin-1-yl]prop-2-en-1-one], for which, in assay [1] (NCI-H358, 3 h), the negative-log IC50 (pIC50) was less than 6.00. Also, the POC result on KRas G12C was “C (“C”>50% POC)”.

As for `C=CC(=O)N1CCN(c2nc(OCCO)nc3c2CCN(c2cc(O)cc4ccccc24)C3)CC1` [Example 142, 1-[4-[2-(2-hydroxyethoxy)-7-(3-hydroxy-1-naphthyl)-6,8-dihydro-5H-pyrido[3,4-d]pyrimidin-4-yl]piperazin-1-yl]prop-2-en-1-one], the pIC50 in assay [1] (NCI-H358, 3 h) was less than 6.00. Also, on KRas G12C, the POC result is listed as “C (“C”>50% POC)”.

Take `C=CC(=O)N1CCN(c2nc(OCC(O)CO)nc3c2CCN(c2cc(O)cc4ccccc24)C3)CC1` (centres unmarked) [Example 143, 1-[4-[2-(2,3-dihydroxypropoxy)-7-(3-hydroxy-1-naphthyl)-6,8-dihydro-5H-pyrido[3,4-d]pyrimidin-4-yl]piperazin-1-yl]prop-2-en-1-one]: the pIC50 in assay [1] (NCI-H358, 3 h) was less than 6.00. Further, the POC result on KRas G12C is recorded as “C (“C”>50% POC)”.

Consider `C=CC(=O)N1CCN(c2nc(OC[C@@H]3CCCN3CCOC)nc3c2CCN(c2cc(O)cc4ccccc24)C3)CC1` [Example 144, (5)-1-(4-(7-(3-hydroxynaphthalen-1-yl)-2-((1-(2-methoxyethyl)pyrrolidin-2-yl)methoxy)-5,6,7,8-tetrahydropyrido[3,4-d]pyrimidin-4-yl)piperazin-1-yl)prop-2-en-1-one], for which the pIC50 in assay [1] (NCI-H358, 3 h) is 6.00 to 10.00. Further, at KRas G12C, the POC entry is reported as “C (“C”>50% POC)”.

As for `C=CC(=O)N1CCN(c2nc(OC[C@@H]3CCCN3C(C)C)nc3c2CCN(c2cc(O)cc4ccccc24)C3)CC1` [Example 145, 1-[4-[7-(3-hydroxy-1-naphthyl)-2-[[(2S)-1-isopropylpyrrolidin-2-yl]methoxy]-6,8-dihydro-5H-pyrido[3,4-d]pyrimidin-4-yl]piperazin-1-yl]prop-2-en-1-one], the pIC50 in assay [1] (NCI-H358, 3 h) is 6.00 to 10.00. The POC entry on KRas G12C was “C (“C”>50% POC)”.

For `C=CC(=O)N1CCN(c2nc(OC[C@@H]3CCNC3)nc3c2CCN(c2cc(O)cc4ccccc24)C3)CC1` [Example 146, 1-[4-[7-(3-hydroxy-1-naphthyl)-2-[[(3R)-pyrrolidin-3-yl]methoxy]-6,8-dihydro-5H-pyrido[3,4-d]pyrimidin-4-yl]piperazin-1-yl]prop-2-en-1-one], in assay [1] (NCI-H358, 3 h), the pIC50 was less than 6.00. In addition, the POC entry at KRas G12C is listed as “B (“B”>25% POC−≤50% POC)”.

`C=CC(=O)N1CCN(c2nc(OC[C@@H]3CCCN3C)nc3c2CCN(c2cccc4ccccc24)C3)CC1CC#N` (stereo partly drawn) [Example 147, 2-[4-[2-[[(2S)-1-methylpyrrolidin-2-yl]methoxy]-7-(1-naphthyl)-6,8-dihydro-5H-pyrido[3,4-d]pyrimidin-4-yl]-1-prop-2-enoyl-piperazin-2-yl]acetonitrile]: the pIC50 in assay [1] is 6.00 to 10.00. Besides, the POC entry at KRas G12C is on record as “C (“C”>50% POC)”.

Consider `C=CC(=O)N1CCN(c2nc(OC[C@@H]3CCCN3C)nc3c2CCN(c2c(C)ccc4[nH]ncc24)C3)CC1CC#N` (stereo partly drawn) [Example 148, 2-[4-[7-(5-methyl-1H-indazol-4-yl)-2-[[(2S)-1-methylpyrrolidin-2-yl]methoxy]-6,8-dihydro-5H-pyrido[3,4-d]pyrimidin-4-yl]-1-prop-2-enoyl-piperazin-2-yl]acetonitrile], for which, in assay [1], the pIC50 is 6.00 to 10.00. Moreover, at KRas G12C, the POC result is reported as “C (“C”>50% POC)”.

Regarding `C=CC(=O)N1CCN(c2nc(OC[C@@H]3CCCN3C)nc3c2CCN(c2c(C(F)(F)F)ccc4[nH]ncc24)C3)CC1CC#N` (stereo partly drawn) [Example 149, 2-[4-[2-[[(2S)-1-methylpyrrolidin-2-yl]methoxy]-7-[5-(trifluoromethyl)-1H-indazol-4-yl]-6,8-dihydro-5H-pyrido[3,4-d]pyrimidin-4-yl]-1-prop-2-enoyl-piperazin-2-yl]acetonitrile], the negative-log IC50 (pIC50) in assay [1] is 6.00 to 10.00. Besides, the POC result at KRas G12C is reported as “B (“B”>25% POC−≤50% POC)”.

For the compound `C=CC(=O)N1CCN(c2nc(O[C@H](C)CN(C)C)nc3c2CCN(c2cc(O)cc4ccccc24)C3)CC1CC#N` (stereo partly drawn) [Example 150, 2-(1-acryloyl-4-(2-(((R)-1-(dimethylamino)propan-2-yl)oxy)-7-(3-hydroxynaphthalen-1-yl)-5,6,7,8-tetrahydropyrido[3,4-d]pyrimidin-4-yl)piperazin-2-yl)acetonitrile], the pIC50 in assay [1] (NCI-H358, 3 h) was 6.00 to 10.00. Moreover, the POC result at KRas G12C is recorded as “C (“C”>50% POC)”.

Consider `C=CC(=O)N1CCN(c2nc(O[C@H](C)CN(C)C)nc3c2CCN(c2cccc4ccccc24)C3)CC1CC#N` (stereo partly drawn) [Example 151, 2-(1-acryloyl-4-(2-(((R)-1-(dimethylamino)propan-2-yl)oxy)-7-(naphthalen-1-yl)-5,6,7,8-tetrahydropyrido[3,4-d]pyrimidin-4-yl)piperazin-2-yl)acetonitrile], for which, in assay [1] (NCI-H358, 3 h), the pIC50 is less than 6.00. Further, the POC entry at KRas G12C is given as “B (“B”>25% POC−≤50% POC)”.
